For 20 compounds, IC50 results are on record in patent publication US11458140B2, “Annulated glycosidase inhibitors” (Asceneuron SA, priority 2017, dated 2022).

This assay addresses Human O-GlcNAcase (His-Tagged hOGA) (Homo sapiens (Human), UniProt O60502). Description: Human O-GlcNAcase enzyme inhibition assay (FL-GlcNAc fluorescence). The class given is biochemical. To be noted: His-Tagged hOGA 20 nM, FL-GlcNAc 10 μM, 60 min at room temperature, pH 6.5; for pIC50: read-out: Enzymatic OGA IC50; for IC50: Enzymatic OGA IC50 (M).

pIC50: −log10 of the molar value. Read-outs that look alike come from different tables or passages of the source.

Sequence of Human O-GlcNAcase (His-Tagged hOGA) (O60502 whole entry): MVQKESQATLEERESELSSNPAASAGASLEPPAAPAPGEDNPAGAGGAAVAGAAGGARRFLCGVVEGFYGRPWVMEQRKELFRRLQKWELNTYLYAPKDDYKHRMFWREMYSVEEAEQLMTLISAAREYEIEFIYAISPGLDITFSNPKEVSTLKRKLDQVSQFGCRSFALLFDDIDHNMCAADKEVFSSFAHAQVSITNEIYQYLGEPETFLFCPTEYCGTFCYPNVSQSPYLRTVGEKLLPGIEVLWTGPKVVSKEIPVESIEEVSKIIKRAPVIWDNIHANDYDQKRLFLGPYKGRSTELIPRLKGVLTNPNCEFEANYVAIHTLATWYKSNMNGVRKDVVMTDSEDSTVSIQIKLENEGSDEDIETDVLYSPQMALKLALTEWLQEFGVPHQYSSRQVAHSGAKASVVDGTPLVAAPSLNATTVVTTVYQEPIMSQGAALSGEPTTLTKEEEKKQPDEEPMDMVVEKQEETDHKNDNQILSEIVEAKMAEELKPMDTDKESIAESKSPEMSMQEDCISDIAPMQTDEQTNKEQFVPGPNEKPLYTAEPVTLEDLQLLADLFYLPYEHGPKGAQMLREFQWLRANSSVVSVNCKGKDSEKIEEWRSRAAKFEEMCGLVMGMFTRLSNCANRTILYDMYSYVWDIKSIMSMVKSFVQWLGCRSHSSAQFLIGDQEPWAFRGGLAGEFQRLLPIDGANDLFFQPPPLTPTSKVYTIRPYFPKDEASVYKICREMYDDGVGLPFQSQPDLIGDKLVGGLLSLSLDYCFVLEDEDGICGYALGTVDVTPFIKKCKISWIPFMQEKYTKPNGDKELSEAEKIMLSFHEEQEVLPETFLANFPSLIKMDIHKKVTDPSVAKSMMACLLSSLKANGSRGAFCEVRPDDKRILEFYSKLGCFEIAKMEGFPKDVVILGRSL
Protocol: Then, 20 nM of His-Tagged hOGA and 10 μM of FL-GlcNAc (Fluorescein mono-beta-D-(2-deoxy-2-N-acetyl) glucopyranoside; Marker Gene Technologies Inc, M1485) were added to the 384-well plate for a final volume of 20 μl.

In the case of `CC(c1ccc2c(c1)OCC2)N1CCc2nn(-c3ccccc3)cc2C1` (racemic) [Example 8, 5-(1-(2,3-dihydrobenzofuran-6-yl)ethyl)-2-phenyl-4,5,6,7-tetrahydro-2H-pyrazolo[4,3-c]pyridine], the pIC50 is 6.70 to 7.30.

The compound `CC(c1ccc2c(c1)OCC2)N1CCn2nc(-c3ccc(S(C)(=O)=O)cc3)nc2C1` (racemic) [Example 17] gave an IC50 of 1e-06 to 1e-05 M.

For `CC(c1ccc2c(c1)OCC2)N1CCc2c(cnn2Cc2ncccn2)C1` (racemic) [Example 21, 5-(1-(2,3-dihydrobenzofuran-6-yl)ethyl)-1-(pyrimidin-2-ylmethyl)-4,5,6,7-tetrahydro-1H-pyrazolo[4,3-c]pyridine], the pIC50 is 6.00 to 6.70.

For the compound `CC(c1ccc2c(c1)OCC2)N1CCc2c(cnn2-c2cncnc2)C1` (racemic) [Example 14, 5-(1-(2,3-dihydrobenzofuran-6-yl)ethyl)-1-(pyrimidin-5-yl)-4,5,6,7-tetrahydro-1H-pyrazolo[4,3-c]pyridine], the negative logarithm of the IC50 (pIC50) was 6.00 to 6.70.

Consider `CC(c1ccc2c(c1)OCC2)N1CCc2nc(-c3ccc(F)cc3)sc2C1` (racemic) [Example 11, 5-(1-(2,3-dihydrobenzofuran-6-yl)ethyl)-2-(4-fluorophenyl)-4,5,6,7-tetrahydrothiazolo[5,4-c]pyridine], for which the negative logarithm of the IC50 (pIC50) was 6.00 to 6.70.

Turning to `CC(c1ccc2c(c1)OCC2)N1CCn2nc(-c3cccnc3)nc2C1` (racemic) [Example 18, 7-(1-(2,3-dihydrobenzofuran-6-yl)ethyl)-2-(pyridin-3-yl)-5,6,7,8-tetrahydro-[1,2,4]triazolo[1,5-a]pyrazine], the pIC50 is 5.00 to 6.00.

On to “5-(1-(2,3-dihydrobenzofuran-6-yl)ethyl)-2-(pyridin-2-yl)-4,5,6,7-tetrahydro-2H-pyrazolo[4,3-c]pyridine [Example 10]”, for which the pIC50 was 6.70 to 7.30.

As for `CC(c1ccc2c(c1)OCC2)N1CCc2nn(-c3ccccc3)cc2C1` (single isomer, unassigned) [Example 12], the pIC50 was 5.00 to 6.00.

For `CC(=O)Nc1ncc2c(n1)CCN(C(C)c1ccc3c(c1)OCO3)C2` (racemic) [Example 1, N-(6-(1-(benzo[d][1,3]dioxol-5-yl)ethyl)-5,6,7,8-tetrahydropyrido[4,3-d]pyrimidin-2-yl)acetamide], the negative-log IC50 (pIC50) was 5.00 to 6.00.

In the case of `CC(c1ccc2c(c1)OCC2)N1CCc2c(cnn2-c2ccccc2)C1` (racemic) [Example 7, 5-(1-(2,3-dihydrobenzofuran-6-yl)ethyl)-1-phenyl-4,5,6,7-tetrahydro-1H-pyrazolo[4,3-c]pyridine], the negative-log IC50 (pIC50) is 6.70 to 7.30.

In turn, `CC(=O)Nc1nc2c(s1)CN(C(C)c1ccc3c(c1)OCO3)CC2` (racemic) [Example 3, N-(5-(1-(benzo[d][1,3]dioxol-5-yl)ethyl)-4,5,6,7-tetrahydrothiazolo[5,4-c]pyridin-2-yl)acetamide] displayed an IC50 of 2e-07 to 1e-06 M.

Regarding `CC(c1ccc2c(c1)OCO2)N1CCc2ccccc2C1` (racemic) [Example 2, 2-(1-(benzo[d][1,3]dioxol-5-yl)ethyl)-1,2,3,4-tetrahydroisoquinoline], the pIC50 was 6.00 to 6.70.

For the compound `CC(c1ccc2c(c1)OCC2)N1CCc2nn(Cc3ncccn3)cc2C1` (racemic) [Example 20, 5-(1-(2,3-dihydrobenzofuran-6-yl)ethyl)-2-(pyrimidin-2-ylmethyl)-4,5,6,7-tetrahydro-2H-pyrazolo[4,3-c]pyridine], the pIC50 is 6.00 to 6.70.

For the compound `CC(c1ccc2c(c1)OCC2)N1CCc2nn(-c3ccc(F)cc3)cc2C1` (racemic) [Example 6, 5-(1-(2,3-dihydrobenzofuran-6-yl)ethyl)-2-(4-fluorophenyl)-4,5,6,7-tetrahydro-2H-pyrazolo[4,3-c]pyridine], the pIC50 was 6.70 to 7.30.

“5-(1-(2,3-dihydrobenzofuran-6-yl)ethyl)-1-(pyridin-2-yl)-4,5,6,7-tetrahydro-1H-pyrazolo[4,3-c]pyridine [Example 9]”: the pIC50 is 6.70 to 7.30.

Take `CC(c1ccc2c(c1)OCC2)N1CCc2c(cnn2-c2ccc(F)cc2)C1` (racemic) [Example 5, 5-(1-(2,3-dihydrobenzofuran-6-yl)ethyl)-1-(4-fluorophenyl)-4,5,6,7-tetrahydro-1H-pyrazolo[4,3-c]pyridine]: the pIC50 is 6.70 to 7.30.

`CC(c1ccc2c(c1)OCC2)N1CCc2n[nH]cc2C1` (racemic) [Example 4, 5-(1-(2,3-dihydrobenzofuran-6-yl)ethyl)-4,5,6,7-tetrahydro-2H-pyrazolo[4,3-c]pyridine]: the pIC50 is 6.70 to 7.30.

`CC(c1ccc2c(c1)OCC2)N1CCc2nn(C3CCOCC3)cc2C1` (centres unmarked) [Example 15, 5-(1-(2,3-dihydrobenzofuran-6-yl)ethyl)-1-(tetrahydro-2H-pyran-4-yl)-4,5,6,7-tetrahydro-1H-pyrazolo[4,3-c]pyridine or 5-(1-(2,3-dihydrobenzofuran-6-yl)ethyl)-2-(tetrahydro-2H-pyran-4-yl)-4,5,6,7-tetrahydro-2H-pyrazolo[4,3-c]pyridine]: the pIC50 was 5.00 to 6.00.

As for `CC(c1ccc2c(c1)OCC2)N1CCc2nn(-c3ccccc3)cc2C1` (single isomer, unassigned) [Example 13], the pIC50 was 6.70 to 7.30.

Take `CC(c1ccc2c(c1)OCC2)N1CCn2nc(Nc3ccc(C#N)cn3)nc2C1` (racemic) [Example 19, 6-((7-(1-(2,3-dihydrobenzofuran-6-yl)ethyl)-5,6,7,8-tetrahydro-[1,2,4]triazolo[1,5-a]pyrazin-2-yl)amino)nicotinonitrile]: the negative-log IC50 (pIC50) is 5.00 to 6.00.

Broadly, the pIC50 is the IC50 on a negative log10 scale, so that one unit is a factor of ten. As a reminder, the IC50 is the midpoint of a concentration-inhibition curve. Low values mean greater potency, high ones weaker potency.
